Measured values as given in patent US11912693B2, “Compounds for modulating S1P1 activity and methods of using the same” (TREVENA, INC., priority 2017, dated 2024).

Experiments:
[1] = target: T1, human sphingosine-1-phosphate receptor 1 (S1P1) (Homo sapiens (Human), UniProt P21453); assay: β-Arrestin2 recruitment assay (PathHunter), S1P1 CHO-K1 cells; assay type: cell-based; conditions: for Emax: CHO-K1, efficacy (SPAN) normalized to fingolimod, read-out: hS1P1 B-arrestin2 SPAN; for hS1P1 B-arrestin2 pEC50: β-arrestin2 recruitment, S1P1 CHO-K1 cells
Experimental: (§1) Stable clonal Chinese hamster ovary K1 (CHO-K1) cells co-expressing EA-β-arrestin2 and the human sphingosine-1-phosphate receptor 1 (NM_001400, S1P1) with a C-terminal Prolink™ tag were purchased from DiscoverX corporation (Cat #: 93-0207C2).
(§2) Cell lines were cultured in AssayComplete™ Media 6 (DiscoverX Corporation, Cat #: 920018GF2) at 37° C. and 5% CO2 in a humidified CO2 and temperature-controlled incubator. To begin assay plating, cells were washed with dulbecco's phosphate buffered saline (CellGro, Cat #: 21-031-CV) and lifted from the culturing flask by incubation (37° C., 5 min) with CellStripper (Cellgro, Cat #: 25-056-CI). […] Plated cells were incubated overnight at 37° C. and 5% CO2 in a humidified CO2 and temperature-controlled incubator. Detecting Inhibition of cAMP Production
Agonist-promoted β-arrestin2 recruitment to the sphingosine-1-phosphate 1 receptor was determined using the β-arrestin PathHunter®) Detection kit (DiscoverX Corporation, Cat #: 93-0001). […] In cells that stably express these fusion proteins, stimulation with a cognate agonist results in the interaction of […] and the Prolink™-tagged GPCR. This allows the complementation of the two β-galactosidase fragments and results in the formation of a functional enzyme with β-galactosidase activity. […] Following a 60 minute incubation at 37° C. and 5% CO2 in a humidified CO2 and temperature-controlled incubator, the components of the β-arrestin PathHunter® Detection kit were added as per the manufacturer's instructions. After an hour incubation at room temperature, plates were analyzed by a BMG PheraStar microplate reader.
(§3) The tables below include the efficacy of the compound as compared to a positive control, referred to as “SPAN”. These values are normalized to fingolimod, a known agonist of the sphingosine-1-phosphate 1 receptor. The tables also include potency values (pEC50) for modulating discrete receptor-mediated activities (inhibition of cAMP production and […] recruitment).
Target sequence in this assay (P21453 whole entry, looked up): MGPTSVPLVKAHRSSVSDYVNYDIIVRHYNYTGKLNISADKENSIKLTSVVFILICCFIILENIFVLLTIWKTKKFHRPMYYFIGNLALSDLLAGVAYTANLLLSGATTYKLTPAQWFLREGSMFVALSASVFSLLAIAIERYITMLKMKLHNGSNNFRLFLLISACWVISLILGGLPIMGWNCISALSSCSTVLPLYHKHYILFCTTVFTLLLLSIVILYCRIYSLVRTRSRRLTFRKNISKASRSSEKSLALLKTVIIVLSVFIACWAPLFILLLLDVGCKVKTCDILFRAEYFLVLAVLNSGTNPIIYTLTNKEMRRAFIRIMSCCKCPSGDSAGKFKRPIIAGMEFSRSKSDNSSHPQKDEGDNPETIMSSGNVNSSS
Target sequence in this assay (P32121 whole entry partner, looked up): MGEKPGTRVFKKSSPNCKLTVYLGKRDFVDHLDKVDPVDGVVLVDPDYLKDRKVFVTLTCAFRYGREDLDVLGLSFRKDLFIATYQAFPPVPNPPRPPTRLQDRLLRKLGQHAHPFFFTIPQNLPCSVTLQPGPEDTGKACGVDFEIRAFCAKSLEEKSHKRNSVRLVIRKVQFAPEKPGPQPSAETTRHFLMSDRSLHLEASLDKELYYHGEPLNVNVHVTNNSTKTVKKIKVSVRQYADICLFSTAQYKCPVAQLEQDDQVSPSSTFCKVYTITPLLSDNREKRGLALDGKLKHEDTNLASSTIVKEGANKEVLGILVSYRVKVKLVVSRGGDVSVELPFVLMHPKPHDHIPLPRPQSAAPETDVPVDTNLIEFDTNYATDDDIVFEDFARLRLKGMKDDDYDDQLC

[2] = target: T1, human sphingosine-1-phosphate receptor 1 (S1P1); assay: Inhibition of cAMP production (HTRF cAMP HiRange), S1P1 CHO-K1 cells; assay type: cell-based; conditions: for Emax: CHO-K1, efficacy (SPAN) normalized to fingolimod, read-out: hS1P1 cAMP SPAN; for hS1P1 cAMP pEC50: inhibition of cAMP production, S1P1 CHO-K1 cells
Experimental: as §1, §2
Target sequence in this assay (P21453 whole entry, looked up): as the sequence (P21453 whole entry, looked up) above
Agonist-promoted G-protein responses were determined by measuring changes in intracellular cAMP using the HTRF® cAMP HiRange kit (CisBio, Cat #: 62AM6PEJ) based on time-resolved fluorescence resonance energy transfer (TR-FRET) technology. […] Following a 30-minute incubation at 37° C. and 5% CO2 in a humidified CO2 and temperature-controlled incubator, the components of the cAMP HiRange kit were added as per the manufacturer's instructions. After an hour incubation at room temperature, plates were analyzed by a BMG PheraStar microplate reader.
as §3

Cc1ccncc1-c1noc(-c2ccc3c(c2)nnn3C2CC2)n1 [Compound 94, 1-cyclopropyl-5-[3-(4-methylpyridin-3-yl)-1,2,4-oxadiazol-5-yl]-1H-1,2,3-benzotriazole]
Emax [1]: > 75%
hS1P1 B-arrestin2 pEC50 [1]: <5
Emax [2]: > 75%
hS1P1 cAMP pEC50 [2]: <6.5

CC(C)n1nnc2cc(-c3nc(-c4ccccc4Cl)co3)ccc21 [Compound 163]
Emax [1]: > 75%
Emax [2]: > 75%

COc1cc(C)c(-c2noc(-c3ccc4c(c3)nnn4C(C)C)n2)c(OC)c1 [Compound 136, 5-[3-(2,4-dimethoxy-6-methylphenyl)-1,2,4-oxadiazol-5-yl]-1-(propan-2-yl)-1H-1,2,3-benzotriazole]
Emax [1]: < 75%
hS1P1 B-arrestin2 pEC50 [1]: <5
Emax [2]: < 75%
hS1P1 cAMP pEC50 [2]: <6.5

CC(C)n1nnc2cc(-c3noc(-c4ccccc4F)n3)ccc21 [Compound 307, 5-(2-fluorophenyl)-3-(1-isopropyl-1H-benzo[d][1,2,3]triazol-5-yl)-1,2,4-oxadiazole]
Emax [1]: > 75%
hS1P1 B-arrestin2 pEC50 [1]: >5
Emax [2]: > 75%
hS1P1 cAMP pEC50 [2]: >6.5

CC(C)Nc1ccc(-c2nnc(-c3ccc4c(c3)CCC(=O)N4)o2)cc1C#N [Compound 473, 5-[5-(2-oxo-1,2,3,4-tetrahydroquinolin-6-yl)-1,3,4-oxadiazol-2-yl]-2-[(propan-2-yl)amino]benzonitrile]
hS1P1 B-arrestin2 pEC50 [1]: >5
hS1P1 cAMP pEC50 [2]: >6.5

Brc1ccccc1-c1nc(-c2ccc3c(c2)nnn3C2CCCC2)no1 [Compound 40, 5-(2-bromophenyl)-3-(1-cyclopentyl-1H-benzo[d][1,2,3]triazol-5-yl)-1,2,4-oxadiazole]
hS1P1 B-arrestin2 pEC50 [1]: >5
hS1P1 cAMP pEC50 [2]: >6.5

CC(C)n1nnc2cc(-c3nc(-c4ccccc4OC(F)(F)F)no3)ccc21 [Compound 132, 5-(1-isopropyl-1H-benzo[d][1,2,3]triazol-5-yl)-3-(2-(trifluoromethoxy)phenyl)-1,2,4-oxadiazole]
Emax [1]: > 75%
hS1P1 B-arrestin2 pEC50 [1]: >5
Emax [2]: > 75%
hS1P1 cAMP pEC50 [2]: >6.5

Cc1cnc(-c2noc(-c3ccc4c(c3)nnn4C3CCOCC3)n2)cn1 [Compound 6, 5-[3-(5-methylpyrazin-2-yl)-1,2,4-oxadiazol-5-yl]-1-(oxan-4-yl)-1H-1,2,3-benzotriazole]
Emax [1]: < 75%
hS1P1 B-arrestin2 pEC50 [1]: <5
Emax [2]: < 75%
hS1P1 cAMP pEC50 [2]: <6.5

CC(C)n1nnc2cc(-c3nc(-c4ccccc4N)co3)ccc21 [Compound 438, 2-{2-[1-(propan-2-yl)-1H-1,2,3-benzotriazol-5-yl]-1,3-oxazol-4-yl}aniline]
Emax [1]: > 75%
hS1P1 B-arrestin2 pEC50 [1]: >5
Emax [2]: > 75%
hS1P1 cAMP pEC50 [2]: >6.5

Cc1oc(-c2ccc3c(c2)nnn3C(C)C)nc1-c1ccc(Cl)cc1 [Compound 50, 5-[4-(4-chlorophenyl)-5-methyl-1,3-oxazol-2-yl]-1-(propan-2-yl)-1H-1,2,3-benzotriazole]
Emax [1]: < 75%
hS1P1 B-arrestin2 pEC50 [1]: <5
Emax [2]: < 75%
hS1P1 cAMP pEC50 [2]: <6.5

CC(C)(CO)n1nnc2cc(-c3noc(-c4ccncc4C(F)(F)F)n3)ccc21 [Compound 626, 2-methyl-2-(5-(5-(3-(trifluoromethyl)pyridin-4-yl)-1,2,4-oxadiazol-3-yl)-1H-benzo[d][1,2,3]triazol-1-yl)propan-1-ol]
hS1P1 B-arrestin2 pEC50 [1]: <5
hS1P1 cAMP pEC50 [2]: <6.5

CC(C)n1nnc2cc(-c3nc(-c4ccccc4)no3)ccc21 [Compound 79, 5-(3-phenyl-1,2,4-oxadiazol-5-yl)-1-(propan-2-yl)-1H-1,2,3-benzotriazole]
Emax [1]: > 75%
hS1P1 B-arrestin2 pEC50 [1]: >5
Emax [2]: > 75%
hS1P1 cAMP pEC50 [2]: >6.5

CC(C)n1ccc2cc(-c3nsc(-c4ccccc4F)n3)ccc21 [Compound 380, 5-[5-(2-fluorophenyl)-1,2,4-thiadiazol-3-yl]-1-(propan-2-yl)-1H-indole]
hS1P1 B-arrestin2 pEC50 [1]: <5
hS1P1 cAMP pEC50 [2]: <6.5

CCCn1nnc2cc(-c3nc(-c4ccc(C(F)(F)F)c(F)c4)no3)ccc21 [Compound 193, 5-{3-[3-fluoro-4-(trifluoromethyl)phenyl]-1,2,4-oxadiazol-5-yl}-1-propyl-1H-1,2,3-benzotriazole]
hS1P1 B-arrestin2 pEC50 [1]: <5
hS1P1 cAMP pEC50 [2]: <6.5

CCC1(CC)CC(=O)c2cc(-c3nc(-c4cccc(Cl)c4)no3)ccc2O1 [Compound 261, 6-[3-(3-chlorophenyl)-1,2,4-oxadiazol-5-yl]-2,2-diethyl-chroman-4-one]
hS1P1 B-arrestin2 pEC50 [1]: >5
hS1P1 cAMP pEC50 [2]: <6.5

CC(C)C(c1ccccc1)c1noc(-c2ccc3c(c2)nnn3C(C)C)n1 (stereo not shown) [Compound 56, 5-[3-(2-methyl-1-phenylpropyl)-1,2,4-oxadiazol-5-yl]-1-(propan-2-yl)-1H-1,2,3-benzotriazole]
hS1P1 B-arrestin2 pEC50 [1]: <5
hS1P1 cAMP pEC50 [2]: <6.5

CCC1(CC)CC(=O)c2cc(-c3nc(-c4ccsc4)no3)ccc2O1 [Compound 468, 2,2-diethyl-6-(3-(thiophen-3-yl)-1,2,4-oxadiazol-5-yl)chroman-4-one]
hS1P1 B-arrestin2 pEC50 [1]: >5
hS1P1 cAMP pEC50 [2]: >6.5

CC(C)n1ccc2cc(-c3noc(-c4ccccc4C(F)(F)F)n3)ccc21 [Compound 390, 3-(1-isopropyl-1H-indol-5-yl)-5-(2-(trifluoromethyl)phenyl)-1,2,4-oxadiazole]
hS1P1 B-arrestin2 pEC50 [1]: >5
hS1P1 cAMP pEC50 [2]: >6.5

CC(C)(CO)Cn1nnc2cc(-c3noc(-c4ccccc4Cl)n3)ccc21 [Compound 526, 3-(5-(5-(2-chlorophenyl)-1,2,4-oxadiazol-3-yl)-1H-benzo[d][1,2,3]triazol-1-yl)-2,2-dimethylpropan-1-ol]
hS1P1 B-arrestin2 pEC50 [1]: <5
hS1P1 cAMP pEC50 [2]: <6.5

CC(C)n1ccc2cc(-c3noc(-c4ccncc4)n3)ccc21 [Compound 395, 3-(1-isopropyl-1H-indol-5-yl)-5-(pyridin-4-yl)-1,2,4-oxadiazole]
hS1P1 B-arrestin2 pEC50 [1]: >5
hS1P1 cAMP pEC50 [2]: >6.5

CC(C)n1nnc2cc(-c3nc4c(o3)CCc3sccc3-4)ccc21 [Compound 456, 4-[1-(propan-2-yl)-1H-1,2,3-benzotriazol-5-yl]-5-oxa-10-thia-3-azatricyclo[7.3.0.0^2,6]dodeca-1(9),2(6),3,11-tetraene]
Emax [1]: > 75%
hS1P1 B-arrestin2 pEC50 [1]: <5
Emax [2]: > 75%
hS1P1 cAMP pEC50 [2]: >6.5

CC(C)n1ccc2cc(-c3noc(-c4ccccc4Br)n3)ccc21 [Compound 388, 5-(2-bromophenyl)-3-(1-isopropyl-1H-indol-5-yl)-1,2,4-oxadiazole]
hS1P1 B-arrestin2 pEC50 [1]: >5
hS1P1 cAMP pEC50 [2]: >6.5

CCC1(CC)CC(=O)c2cc(-c3nc(-c4cnccc4OC)no3)ccc2O1 [Compound 303, 2,2-diethyl-6-(3-(4-methoxypyridin-3-yl)-1,2,4-oxadiazol-5-yl)chroman-4-one]
Emax [1]: > 75%
hS1P1 B-arrestin2 pEC50 [1]: <5
Emax [2]: > 75%
hS1P1 cAMP pEC50 [2]: <6.5

Cc1ccccc1-c1noc(-c2ccc3c(c2)nnn3C2CCOCC2)n1 [Compound 95, 5-[3-(2-methylphenyl)-1,2,4-oxadiazol-5-yl]-1-(oxan-4-yl)-1H-1,2,3-benzotriazole]
Emax [1]: < 75%
hS1P1 B-arrestin2 pEC50 [1]: <5
Emax [2]: < 75%
hS1P1 cAMP pEC50 [2]: <6.5
